The values that follow are results of earlier work, collected in patent publication US20100055040A1, “Optical Imaging Contrast Agents” (priority 2005, published 2010).

For data set [1] the following is noted: gastrointestinal tract.
The subject of data set [2] is ulcerated gastric mucosa. Conditions: humans; ulcerated vs unulcerated gastric mucosa.

For the substance “α-D-glucopyranoside, β-D-fructofuranosyl-, octakis-(hydrogen sulfate), aluminum complex [Sucralfate]”, the “absorption by the body” value in data set [1] is recorded as “only minimally absorbed”. For the same substance, the “times more sucralfate binds to ulcerated gastric mucosa than to unulcerated mucosa” value in data set [2] is “six to seven”.
